Patent US20230398130A1, “METHODS AND COMPOSITIONS FOR DIFFERENTIATING STEM CELLS” (Massachusetts Institute of Technology, priority 2020, published 2023)

Tests used:
ISC-enriched organoids [1] = assay: Secondary (validation) screen, 384-well 2.5-D, ENR+CD 6 days, n=8 wells, vs ENR+CD+DMSO control: basal lysozyme secretion (LYZ.NS); type: cell-based, murine; set-up: key to Dose.FC.LYZ.NS: log10 fold change vs median of vehicle control wells
Protocol: (§1) Drugs were tested at a narrowed dose range around each treatment's identified optimal dose from the primary screen (4× below, 2× above and below).
(§2) High-throughput screening.
(§3) Secondary lysozyme secretion assay screen. Confirmatory secondary screening with primary hits was performed using the above 384-well plate method. The screen was conducted with 4-plate replicates with a base media of ENR+CD. Media was supplemented with compound at day 0 and day 3 (n=8 well replicates per dose) at four different doses: two-fold above, two-fold below, and four-fold below the optimal final dose for each respective treatment. Additionally, each plate carried a large number of ENR+DMSO or ENR+CD+DMSO (vehicle) control wells (n=100 for ATP, and n=25 for LYZ.NS and LYZ.S) for robust normalization. ATP, non-stimulated lysozyme activity and CCh-stimulated lysozyme activity was again measured and the collected data was again processed in a custom R-script, per primary screen with slight modification. Values were log10 transformed, and a plate-wise FC was calculated for each well based on the median value of ENR+CD+DMSO (vehicle) control wells to normalize plate to plate variability.

ISC-enriched organoids [2] = assay: Primary screen, 384-well 2.5-D organoid differentiation (ENR+CD, 6 days): carbachol-induced lysozyme secretion (LYZ.S); type: cell-based, murine; settings: for Dose.FC.LYZ.S: ENR+CD, 6 days, FC vs plate median; for Dose.FC.LYZ.S (log 2 fold change): primary screen, vs plate median
Description: as §2

ISC-enriched organoids [3] = assay: Secondary (validation) screen, 384-well 2.5-D, ENR+CD 6 days, n=8 wells, vs ENR+CD+DMSO control: ATP (CTG); type: cell-based, murine; set-up: key to Dose.FC.CTG: log10 fold change vs median of vehicle control wells
Protocol: as §1, §2, §3

ISC-enriched organoids [4] = assay: Primary screen, 384-well 2.5-D organoid differentiation (ENR+CD, 6 days): basal lysozyme secretion (LYZ.NS); type: cell-based, murine; settings: for Dose.FC.LYZ.NS: ENR+CD, 6 days, FC vs plate median; for Z.LYZ.NS: standard z score of FC; for Z.LYZ.NS (standard z score) / Dose.FC.LYZ.NS (log 2 fold change): primary screen; for Dose.FC.LYZ.NS (log 2 fold change): vs plate median
Description: as §2

ISC-enriched organoids [5] = assay: Primary screen, 384-well 2.5-D organoid differentiation (ENR+CD, 6 days, Target Selective Inhibitor Library, vs whole-plate median): ATP (CellTiter-Glo 3D, CTG); settings: for Dose.FC.CTG: ENR+CD, 6 days, FC vs plate median; for Z.CTG: standard z score of FC; for Z.CTG (standard z score) / Dose.FC.CTG (log 2 fold change): primary screen; for Dose.FC.CTG (log 2 fold change): vs plate median
ISC-enriched organoids [6] = assay: Secondary (validation) screen, 384-well 2.5-D, ENR+CD 6 days, n=8 wells, vs ENR+CD+DMSO control: carbachol-induced lysozyme secretion (LYZ.S); type: cell-based, murine
Protocol: as §1, §2, §3

NC1(Cc2ccc(Cl)cc2)CCN(c2ncnc3[nH]ccc23)CC1 [CCT128930, reference compound]
Dose.FC.LYZ.NS (ISC-enriched organoids [1]; Dose 0.02 uM): −0.241 | Z.LYZ.NS (ISC-enriched organoids [1]; Dose 0.02 uM): −1.927 | repSSMD.LYZ.NS (ISC-enriched organoids [1]; Dose 0.02 uM): −2.551 | Dose.FC.LYZ.NS (ISC-enriched organoids [1]; Dose 0.04 uM): −0.020 | Z.LYZ.NS (ISC-enriched organoids [1]; Dose 0.04 uM): −0.164 | repSSMD.LYZ.NS (ISC-enriched organoids [1]; Dose 0.04 uM): −0.204 | Dose.FC.LYZ.NS (ISC-enriched organoids [1]; Dose […]): −0.160 | Dose.FC.LYZ.NS (ISC-enriched organoids [1]; dose 0.08 uM): 0.031 | Z.LYZ.NS (ISC-enriched organoids [1]; dose 0.08 uM): 0.248 | repSSMD.LYZ.NS (ISC-enriched organoids [1]; dose 0.08 uM): 0.366 | Dose.FC.LYZ.S (ISC-enriched organoids [2]; Dose 0.08 uM): 0.266 log 2 fold change | Dose.FC.LYZ.S (ISC-enriched organoids [2]; Dose 0.40 uM): −0.007 log 2 fold change | Dose.FC.LYZ.S (ISC-enriched organoids [2]; Dose 2.00 uM): 0.053 log 2 fold change | Dose.FC.LYZ.S (ISC-enriched organoids [2]; Dose 10.00 uM): −0.201 log 2 fold change | Dose.FC.CTG (ISC-enriched organoids [3]; Dose 0.02 uM): −0.117 | Z.CTG (ISC-enriched organoids [3]; Dose 0.02 uM): −1.054 | repSSMD.CTG (ISC-enriched organoids [3]; Dose 0.02 uM): −0.787 | Dose.FC.CTG (ISC-enriched organoids [3]; Dose 0.04 uM): 0.122 | Z.CTG (ISC-enriched organoids [3]; Dose 0.04 uM): 1.101 | repSSMD.CTG (ISC-enriched organoids [3]; Dose 0.04 uM): 0.922 | Dose.FC.CTG (ISC-enriched organoids [3]; Dose […]): −0.088 | Dose.FC.CTG (ISC-enriched organoids [3]; dose 0.08 uM): 0.166 | Z.CTG (ISC-enriched organoids [3]; dose 0.08 uM): 1.494 | repSSMD.CTG (ISC-enriched organoids [3]; dose 0.08 uM): 1.047 | Dose.FC.LYZ.NS (ISC-enriched organoids [4]; Dose 0.08 uM): 0.323 log 2 fold change | Z.LYZ.NS (ISC-enriched organoids [4]; Dose 0.08 uM): 2.811 | Dose.FC.LYZ.NS (ISC-enriched organoids [4]; Dose 0.40 uM): −0.018 log 2 fold change | Z.LYZ.NS (ISC-enriched organoids [4]; Dose 0.40 uM): −0.154 | Dose.FC.LYZ.NS (ISC-enriched organoids [4]; Dose 2.00 uM): 0.073 log 2 fold change | Z.LYZ.NS (ISC-enriched organoids [4]; Dose 2.00 uM): 0.633 | Dose.FC.LYZ.NS (ISC-enriched organoids [4]; Dose 10.00 uM): −0.150 log 2 fold change | Z.LYZ.NS (ISC-enriched organoids [4]; Dose 10.00 uM): −1.307 | Dose.FC.CTG (ISC-enriched organoids [5]; Dose 0.08 uM): 0.095 log 2 fold change | Z.CTG (ISC-enriched organoids [5]; Dose 0.08 uM): 0.228 | Dose.FC.CTG (ISC-enriched organoids [5]; Dose 0.40 uM): −0.025 log 2 fold change | Z.CTG (ISC-enriched organoids [5]; Dose 0.40 uM): −0.060 | Dose.FC.CTG (ISC-enriched organoids [5]; Dose 2.00 uM): 0.127 log 2 fold change | Z.CTG (ISC-enriched organoids [5]; Dose 2.00 uM): 0.304 | Dose.FC.CTG (ISC-enriched organoids [5]; Dose 10.00 uM): −0.175 log 2 fold change | Z.CTG (ISC-enriched organoids [5]; Dose 10.00 uM): −0.418 | Z.LYZ.S (ISC-enriched organoids [6]; Dose 0.02 uM): −2.445 | log10 fold change in stimulated lysozyme secretion vs vehicle control (ISC-enriched organoids [6]; Dose 0.02 uM): −0.319 | repSSMD.LYZ.S (ISC-enriched organoids [6]; Dose 0.02 uM): −3.825 | Z.LYZ.S (ISC-enriched organoids [6]; Dose 0.04 uM): −0.108 | log10 fold change in stimulated lysozyme secretion vs vehicle control (ISC-enriched organoids [6]; Dose 0.04 uM): −0.014 | repSSMD.LYZ.S (ISC-enriched organoids [6]; Dose 0.04 uM): −0.157 | log10 fold change in stimulated lysozyme secretion vs vehicle control (ISC-enriched organoids [6]; Dose […]): −0.217 | Z.LYZ.S (ISC-enriched organoids [6]; dose 0.08 uM): 0.041 | log10 fold change in stimulated lysozyme secretion vs vehicle control (ISC-enriched organoids [6]; dose 0.08 uM): 0.005 | repSSMD.LYZ.S (ISC-enriched organoids [6]; dose 0.08 uM): 0.069

NC(=O)c1ccc(-c2nc(-c3ccccn3)c(-c3ccc4c(c3)OCO4)[nH]2)cc1 [SB431542]
Dose.FC.LYZ.NS (ISC-enriched organoids [1]; Dose 0.06 uM): 0.089 | Z.LYZ.NS (ISC-enriched organoids [1]; Dose 0.06 uM): 0.709 | repSSMD.LYZ.NS (ISC-enriched organoids [1]; Dose 0.06 uM): 1.073 | Dose.FC.LYZ.NS (ISC-enriched organoids [1]; Dose 0.24 uM): 0.105 | Z.LYZ.NS (ISC-enriched organoids [1]; Dose 0.24 uM): 0.838 | repSSMD.LYZ.NS (ISC-enriched organoids [1]; Dose 0.24 uM): 0.830 | Dose.FC.LYZ.NS (ISC-enriched organoids [1]; Dose 0.48 uM): −0.016 | Z.LYZ.NS (ISC-enriched organoids [1]; Dose 0.48 uM): −0.128 | repSSMD.LYZ.NS (ISC-enriched organoids [1]; Dose 0.48 uM): −0.149 | Dose.FC.LYZ.NS (ISC-enriched organoids [1]; Dose […]): 0.116 | Dose.FC.LYZ.S (log 2 fold change) (ISC-enriched organoids [2]; Dose 0.08 uM): 0.135 | Dose.FC.LYZ.S (log 2 fold change) (ISC-enriched organoids [2]; Dose 0.40 uM): 0.309 | Dose.FC.LYZ.S (log 2 fold change) (ISC-enriched organoids [2]; Dose 2.00 uM): 0.223 | Dose.FC.LYZ.S (log 2 fold change) (ISC-enriched organoids [2]; Dose 10.00 uM): 0.126 | Dose.FC.CTG (ISC-enriched organoids [3]; Dose 0.06 uM): 0.160 | Z.CTG (ISC-enriched organoids [3]; Dose 0.06 uM): 1.439 | repSSMD.CTG (ISC-enriched organoids [3]; Dose 0.06 uM): 0.654 | Dose.FC.CTG (ISC-enriched organoids [3]; Dose 0.24 uM): 0.023 | Z.CTG (ISC-enriched organoids [3]; Dose 0.24 uM): 0.206 | repSSMD.CTG (ISC-enriched organoids [3]; Dose 0.24 uM): 0.141 | Dose.FC.CTG (ISC-enriched organoids [3]; Dose 0.48 uM): 0.083 | Z.CTG (ISC-enriched organoids [3]; Dose 0.48 uM): 0.752 | repSSMD.CTG (ISC-enriched organoids [3]; Dose 0.48 uM): 0.527 | Dose.FC.CTG (ISC-enriched organoids [3]; Dose […]): 0.120 | Z.LYZ.NS (standard z score) (ISC-enriched organoids [4]; Dose 0.08 uM): 1.225 | Dose.FC.LYZ.NS (log 2 fold change) (ISC-enriched organoids [4]; Dose 0.08 uM): 0.141 | Z.LYZ.NS (standard z score) (ISC-enriched organoids [4]; Dose 0.40 uM): 1.514 | Dose.FC.LYZ.NS (log 2 fold change) (ISC-enriched organoids [4]; Dose 0.40 uM): 0.174 | Z.LYZ.NS (standard z score) (ISC-enriched organoids [4]; Dose 2.00 uM): 1.632 | Dose.FC.LYZ.NS (log 2 fold change) (ISC-enriched organoids [4]; Dose 2.00 uM): 0.187 | Z.LYZ.NS (standard z score) (ISC-enriched organoids [4]; Dose 10.00 uM): 0.346 | Dose.FC.LYZ.NS (log 2 fold change) (ISC-enriched organoids [4]; Dose 10.00 uM): 0.040 | Z.CTG (standard z score) (ISC-enriched organoids [5]; Dose 0.08 uM): 0.907 | Dose.FC.CTG (log 2 fold change) (ISC-enriched organoids [5]; Dose 0.08 uM): 0.380 | Z.CTG (standard z score) (ISC-enriched organoids [5]; Dose 0.40 uM): 1.130 | Dose.FC.CTG (log 2 fold change) (ISC-enriched organoids [5]; Dose 0.40 uM): 0.473 | Z.CTG (standard z score) (ISC-enriched organoids [5]; Dose 2.00 uM): 0.754 | Dose.FC.CTG (log 2 fold change) (ISC-enriched organoids [5]; Dose 2.00 uM): 0.316 | Z.CTG (standard z score) (ISC-enriched organoids [5]; Dose 10.00 uM): 0.370 | Dose.FC.CTG (log 2 fold change) (ISC-enriched organoids [5]; Dose 10.00 uM): 0.155 | Z.LYZ.S (ISC-enriched organoids [6]; Dose 0.06 uM): 0.514 | log10 fold change in stimulated lysozyme secretion vs vehicle control (ISC-enriched organoids [6]; Dose 0.06 uM): 0.067 | repSSMD.LYZ.S (ISC-enriched organoids [6]; Dose 0.06 uM): 0.855 | Z.LYZ.S (ISC-enriched organoids [6]; Dose 0.24 uM): 0.211 | log10 fold change in stimulated lysozyme secretion vs vehicle control (ISC-enriched organoids [6]; Dose 0.24 uM): 0.027 | repSSMD.LYZ.S (ISC-enriched organoids [6]; Dose 0.24 uM): 0.301 | Z.LYZ.S (ISC-enriched organoids [6]; Dose 0.48 uM): −0.387 | log10 fold change in stimulated lysozyme secretion vs vehicle control (ISC-enriched organoids [6]; Dose 0.48 uM): −0.050 | repSSMD.LYZ.S (ISC-enriched organoids [6]; Dose 0.48 uM): −0.449 | log10 fold change in stimulated lysozyme secretion vs vehicle control (ISC-enriched organoids [6]; Dose […]): 0.072
